Results from publication PMC8909834, “An Orally Bioavailable and Highly Efficacious Inhibitor of CDK9/FLT3 for the Treatment of Acute Myeloid Leukemia” (Cancers, 2022).

Experiments:
Assay in all cases: Kinase Hotspot radiolabel assay
Assay type in all cases: biochemical
Conditions in all cases: read-out: % Residual Activity
ALK2/ACVR1 = biological target: T1, ALK2/ACVR1 (Homo sapiens, UniProt Q04771)
T1 construct: purchased Reaction Biology Corporation (Kinase HotSpot)
Method in brief: (§1)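 Data come from a 369-member kinase selectivity screen run as a Hotspot radiolabel assay. Compound concentration was 1 µM, and Ki was determined wherever inhibition topped 90%.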

ASK1/MAP3K5 = biological target: T2, ASK1/MAP3K5 (Homo sapiens, UniProt Q99683)
T2 construct: purchased Reaction Biology Corporation (Kinase HotSpot)
Method in brief: as §1

CDK17/cyclin Y (PCTK2) = biological target: T3, CDK17/cyclin Y (PCTK2) (Homo sapiens, UniProt Q00537)
T3 construct: purchased Reaction Biology Corporation (Kinase HotSpot)
Method in brief: as §1

CDK3/cyclin E = biological target: T4, CDK3/cyclin E (Homo sapiens, UniProt Q00526)
T4 construct: purchased Reaction Biology Corporation (Kinase HotSpot)
Method in brief: as §1

CK1a1L = biological target: T5, CK1a1L (Homo sapiens, UniProt Q8N752)
T5 construct: purchased Reaction Biology Corporation (Kinase HotSpot)
Method in brief: as §1

CLK1 = biological target: T6, CLK1 (Homo sapiens, UniProt P49759)
T6 construct: purchased Reaction Biology Corporation (Kinase HotSpot)
Method in brief: as §1

CLK3 = biological target: T7, CLK3 (Homo sapiens, UniProt P49761)
T7 construct: purchased Reaction Biology Corporation (Kinase HotSpot)
Method in brief: as §1

COT1/MAP3K8 = biological target: T8, COT1/MAP3K8 (Homo sapiens, UniProt P41279)
T8 construct: purchased Reaction Biology Corporation (Kinase HotSpot)
Method in brief: as §1

DMPK2 = biological target: T9, DMPK2 (Homo sapiens, UniProt Q6DT37)
T9 construct: purchased Reaction Biology Corporation (Kinase HotSpot)
Method in brief: as §1

EPHA1 = biological target: T10, EPHA1 (Homo sapiens, UniProt P21709)
T10 construct: purchased Reaction Biology Corporation (Kinase HotSpot)
Method in brief: as §1

EPHA2 = biological target: T11, EPHA2 (Homo sapiens, UniProt P29317)
T11 construct: purchased Reaction Biology Corporation (Kinase HotSpot)
Method in brief: as §1

EPHA3 = biological target: T12, EPHA3 (Homo sapiens, UniProt P29320)
T12 construct: purchased Reaction Biology Corporation (Kinase HotSpot)
Method in brief: as §1

EPHA6 = biological target: T13, EPHA6 (Homo sapiens, UniProt Q9UF33)
T13 construct: purchased Reaction Biology Corporation (Kinase HotSpot)
Method in brief: as §1

ERK5/MAPK7 = biological target: T14, ERK5/MAPK7 (Homo sapiens, UniProt Q13164)
T14 construct: purchased Reaction Biology Corporation (Kinase HotSpot)
Method in brief: as §1

GSK3a = biological target: T15, GSK3a (Homo sapiens, UniProt P49840)
T15 construct: purchased Reaction Biology Corporation (Kinase HotSpot)
Method in brief: as §1

HCK = biological target: T16, HCK (Homo sapiens, UniProt P08631)
T16 construct: purchased Reaction Biology Corporation (Kinase HotSpot)
Method in brief: as §1

MEKK2 = biological target: T17, MEKK2 (Homo sapiens, UniProt Q9Y2U5)
T17 construct: purchased Reaction Biology Corporation (Kinase HotSpot)
Method in brief: as §1

MRCKa/CDC42BPA = biological target: T18, MRCKa/CDC42BPA (Homo sapiens, UniProt Q5VT25)
T18 construct: purchased Reaction Biology Corporation (Kinase HotSpot)
Method in brief: as §1

MST2/STK3 = biological target: T19, MST2/STK3 (Homo sapiens, UniProt Q13188)
T19 construct: purchased Reaction Biology Corporation (Kinase HotSpot)
Method in brief: as §1

MYLK3 = biological target: T20, MYLK3 (Homo sapiens, UniProt Q32MK0)
T20 construct: purchased Reaction Biology Corporation (Kinase HotSpot)
Method in brief: as §1

PAK1 = biological target: T21, PAK1 (Homo sapiens, UniProt Q13153)
T21 construct: purchased Reaction Biology Corporation (Kinase HotSpot)
Method in brief: as §1

PEAK1 = biological target: T22, PEAK1 (Homo sapiens, UniProt Q9H792)
T22 construct: purchased Reaction Biology Corporation (Kinase HotSpot)
Method in brief: as §1

PKCiota = biological target: T23, PKCiota (Homo sapiens, UniProt P41743)
T23 construct: purchased Reaction Biology Corporation (Kinase HotSpot)
Method in brief: as §1

RIPK5 = biological target: T24, RIPK5 (Homo sapiens, UniProt Q6XUX3)
T24 construct: purchased Reaction Biology Corporation (Kinase HotSpot)
Method in brief: as §1

RON/MST1R = biological target: T25, RON/MST1R (Homo sapiens, UniProt Q04912)
T25 construct: purchased Reaction Biology Corporation (Kinase HotSpot)
Method in brief: as §1

STK22D/TSSK1 = biological target: T26, STK22D/TSSK1 (Homo sapiens, UniProt Q9BXA7)
T26 construct: purchased Reaction Biology Corporation (Kinase HotSpot)
Method in brief: as §1

TESK2 = biological target: T27, TESK2 (Homo sapiens, UniProt Q96S53)
T27 construct: purchased Reaction Biology Corporation (Kinase HotSpot)
Method in brief: as §1

TYK1/LTK = biological target: T28, TYK1/LTK (Homo sapiens, UniProt P29376)
T28 construct: purchased Reaction Biology Corporation (Kinase HotSpot)
Method in brief: as §1

ULK3 = biological target: T29, ULK3 (Homo sapiens, UniProt Q6PHR2)
T29 construct: purchased Reaction Biology Corporation (Kinase HotSpot)
Method in brief: as §1

WNK3 = biological target: T30, WNK3 (Homo sapiens, UniProt Q9BYP7)
T30 construct: purchased Reaction Biology Corporation (Kinase HotSpot)
Method in brief: as §1

T23 sequence (P41743 whole entry): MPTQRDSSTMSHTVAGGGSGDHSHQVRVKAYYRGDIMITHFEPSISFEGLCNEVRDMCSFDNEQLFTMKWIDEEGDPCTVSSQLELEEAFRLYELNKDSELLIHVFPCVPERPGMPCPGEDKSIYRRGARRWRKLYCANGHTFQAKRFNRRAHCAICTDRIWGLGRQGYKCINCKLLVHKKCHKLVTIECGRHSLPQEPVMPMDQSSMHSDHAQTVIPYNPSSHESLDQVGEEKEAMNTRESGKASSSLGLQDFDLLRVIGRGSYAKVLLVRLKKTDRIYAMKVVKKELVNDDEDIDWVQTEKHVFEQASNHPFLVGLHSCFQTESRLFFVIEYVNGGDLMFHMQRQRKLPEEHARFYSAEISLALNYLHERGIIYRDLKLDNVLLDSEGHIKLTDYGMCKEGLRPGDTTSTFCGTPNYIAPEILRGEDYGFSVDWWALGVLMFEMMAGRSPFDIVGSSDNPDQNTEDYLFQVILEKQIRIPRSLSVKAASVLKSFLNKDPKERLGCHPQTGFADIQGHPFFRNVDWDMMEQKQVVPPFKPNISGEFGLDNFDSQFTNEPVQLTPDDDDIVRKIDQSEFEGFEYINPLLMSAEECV
T9 sequence (Q6DT37 whole entry): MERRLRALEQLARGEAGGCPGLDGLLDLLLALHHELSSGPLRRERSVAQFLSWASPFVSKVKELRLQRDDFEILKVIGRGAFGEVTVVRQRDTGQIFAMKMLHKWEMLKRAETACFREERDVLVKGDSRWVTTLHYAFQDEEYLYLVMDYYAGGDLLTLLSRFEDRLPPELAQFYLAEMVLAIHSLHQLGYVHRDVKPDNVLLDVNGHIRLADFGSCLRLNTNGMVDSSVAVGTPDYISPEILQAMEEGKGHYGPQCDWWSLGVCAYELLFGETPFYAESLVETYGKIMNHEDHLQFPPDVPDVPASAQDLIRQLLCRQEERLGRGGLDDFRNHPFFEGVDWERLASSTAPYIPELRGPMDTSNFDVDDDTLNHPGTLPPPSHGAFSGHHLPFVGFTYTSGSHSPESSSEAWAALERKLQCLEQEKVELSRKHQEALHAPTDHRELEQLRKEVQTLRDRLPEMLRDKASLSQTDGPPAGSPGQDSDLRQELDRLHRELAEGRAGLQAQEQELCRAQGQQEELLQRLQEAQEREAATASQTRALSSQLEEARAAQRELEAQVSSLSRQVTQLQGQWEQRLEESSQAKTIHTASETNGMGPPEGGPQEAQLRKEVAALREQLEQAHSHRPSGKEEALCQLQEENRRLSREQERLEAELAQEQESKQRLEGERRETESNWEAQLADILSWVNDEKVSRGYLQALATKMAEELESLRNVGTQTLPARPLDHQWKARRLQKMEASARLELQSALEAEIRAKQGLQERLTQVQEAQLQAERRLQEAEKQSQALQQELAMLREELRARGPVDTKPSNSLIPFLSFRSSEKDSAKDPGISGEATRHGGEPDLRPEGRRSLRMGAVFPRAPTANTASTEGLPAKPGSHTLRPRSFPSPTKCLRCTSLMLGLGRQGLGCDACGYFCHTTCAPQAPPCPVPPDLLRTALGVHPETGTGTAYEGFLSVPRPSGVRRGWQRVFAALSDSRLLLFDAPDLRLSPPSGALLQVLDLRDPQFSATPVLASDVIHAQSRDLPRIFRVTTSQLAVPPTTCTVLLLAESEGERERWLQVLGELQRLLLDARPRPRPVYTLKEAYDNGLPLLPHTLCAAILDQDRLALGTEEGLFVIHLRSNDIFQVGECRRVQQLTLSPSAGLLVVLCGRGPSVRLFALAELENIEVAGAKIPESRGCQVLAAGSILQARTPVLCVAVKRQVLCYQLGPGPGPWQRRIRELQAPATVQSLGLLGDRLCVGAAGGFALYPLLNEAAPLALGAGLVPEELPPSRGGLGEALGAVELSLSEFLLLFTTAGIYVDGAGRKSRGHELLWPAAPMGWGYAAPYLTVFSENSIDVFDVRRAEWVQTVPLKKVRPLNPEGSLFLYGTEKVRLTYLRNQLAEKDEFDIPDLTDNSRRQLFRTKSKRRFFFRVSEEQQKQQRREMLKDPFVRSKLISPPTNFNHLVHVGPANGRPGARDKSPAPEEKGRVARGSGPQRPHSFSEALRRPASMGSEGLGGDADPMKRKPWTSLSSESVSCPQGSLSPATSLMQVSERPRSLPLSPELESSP
T11 sequence (P29317 24-976): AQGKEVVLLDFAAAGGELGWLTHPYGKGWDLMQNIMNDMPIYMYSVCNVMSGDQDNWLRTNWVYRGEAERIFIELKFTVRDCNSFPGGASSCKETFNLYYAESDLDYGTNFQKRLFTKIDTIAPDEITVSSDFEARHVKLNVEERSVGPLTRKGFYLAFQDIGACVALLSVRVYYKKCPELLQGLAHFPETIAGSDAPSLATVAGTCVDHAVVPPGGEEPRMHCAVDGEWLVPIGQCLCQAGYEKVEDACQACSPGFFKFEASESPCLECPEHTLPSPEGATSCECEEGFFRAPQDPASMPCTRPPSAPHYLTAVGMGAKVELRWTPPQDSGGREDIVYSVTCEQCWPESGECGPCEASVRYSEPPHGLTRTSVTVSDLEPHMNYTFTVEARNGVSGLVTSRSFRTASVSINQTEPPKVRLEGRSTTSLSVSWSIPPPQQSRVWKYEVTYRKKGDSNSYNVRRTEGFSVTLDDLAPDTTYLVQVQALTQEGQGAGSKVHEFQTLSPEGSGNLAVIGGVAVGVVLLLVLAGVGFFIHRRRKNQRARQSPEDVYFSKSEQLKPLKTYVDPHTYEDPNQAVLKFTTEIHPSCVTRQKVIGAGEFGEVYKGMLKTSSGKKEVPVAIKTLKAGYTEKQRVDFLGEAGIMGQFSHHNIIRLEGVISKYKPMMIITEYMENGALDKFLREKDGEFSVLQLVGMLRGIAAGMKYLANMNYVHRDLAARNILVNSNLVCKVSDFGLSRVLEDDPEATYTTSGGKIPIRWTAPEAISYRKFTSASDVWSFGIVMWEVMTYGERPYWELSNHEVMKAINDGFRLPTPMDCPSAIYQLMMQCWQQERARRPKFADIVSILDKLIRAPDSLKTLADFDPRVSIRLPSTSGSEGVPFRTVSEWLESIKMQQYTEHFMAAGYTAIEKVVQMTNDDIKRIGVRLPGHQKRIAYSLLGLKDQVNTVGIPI
T10 sequence (P21709 26-976): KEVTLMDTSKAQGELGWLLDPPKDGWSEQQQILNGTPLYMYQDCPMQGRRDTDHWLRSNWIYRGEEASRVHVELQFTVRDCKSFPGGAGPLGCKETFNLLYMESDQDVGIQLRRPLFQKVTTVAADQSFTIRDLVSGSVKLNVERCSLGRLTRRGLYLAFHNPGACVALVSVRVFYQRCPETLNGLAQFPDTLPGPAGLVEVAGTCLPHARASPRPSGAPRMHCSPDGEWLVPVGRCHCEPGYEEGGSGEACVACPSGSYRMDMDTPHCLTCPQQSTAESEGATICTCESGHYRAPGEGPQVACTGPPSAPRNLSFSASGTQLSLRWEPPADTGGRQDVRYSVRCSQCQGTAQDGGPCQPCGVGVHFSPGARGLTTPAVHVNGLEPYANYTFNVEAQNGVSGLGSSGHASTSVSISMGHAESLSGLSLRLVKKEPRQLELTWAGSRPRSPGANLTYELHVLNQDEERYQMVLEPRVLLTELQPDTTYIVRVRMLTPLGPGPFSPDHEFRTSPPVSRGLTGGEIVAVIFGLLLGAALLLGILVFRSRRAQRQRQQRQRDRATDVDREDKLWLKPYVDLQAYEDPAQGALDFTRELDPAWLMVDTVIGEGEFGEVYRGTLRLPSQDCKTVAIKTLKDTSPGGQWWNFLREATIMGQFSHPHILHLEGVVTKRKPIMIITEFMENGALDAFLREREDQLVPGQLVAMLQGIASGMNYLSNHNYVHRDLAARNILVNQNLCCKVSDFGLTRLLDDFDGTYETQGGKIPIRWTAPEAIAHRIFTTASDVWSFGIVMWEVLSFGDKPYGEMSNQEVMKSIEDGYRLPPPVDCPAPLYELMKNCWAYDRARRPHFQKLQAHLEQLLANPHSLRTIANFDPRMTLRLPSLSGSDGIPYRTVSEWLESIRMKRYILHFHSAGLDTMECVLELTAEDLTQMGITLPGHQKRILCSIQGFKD
T1 sequence (Q04771 21-509): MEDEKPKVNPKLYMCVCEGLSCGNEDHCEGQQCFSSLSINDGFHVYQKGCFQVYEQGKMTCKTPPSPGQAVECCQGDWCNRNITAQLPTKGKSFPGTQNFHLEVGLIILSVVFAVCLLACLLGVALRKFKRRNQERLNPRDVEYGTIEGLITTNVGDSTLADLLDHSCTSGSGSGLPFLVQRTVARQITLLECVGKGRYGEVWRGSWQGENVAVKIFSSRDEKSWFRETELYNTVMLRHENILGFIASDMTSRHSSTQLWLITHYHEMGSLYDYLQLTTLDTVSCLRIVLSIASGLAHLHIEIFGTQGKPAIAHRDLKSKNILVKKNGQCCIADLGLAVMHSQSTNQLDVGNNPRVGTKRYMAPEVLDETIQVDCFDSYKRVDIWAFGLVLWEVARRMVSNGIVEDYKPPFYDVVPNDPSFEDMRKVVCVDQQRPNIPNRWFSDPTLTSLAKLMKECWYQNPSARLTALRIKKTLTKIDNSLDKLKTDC
T6 sequence (P49759 whole entry): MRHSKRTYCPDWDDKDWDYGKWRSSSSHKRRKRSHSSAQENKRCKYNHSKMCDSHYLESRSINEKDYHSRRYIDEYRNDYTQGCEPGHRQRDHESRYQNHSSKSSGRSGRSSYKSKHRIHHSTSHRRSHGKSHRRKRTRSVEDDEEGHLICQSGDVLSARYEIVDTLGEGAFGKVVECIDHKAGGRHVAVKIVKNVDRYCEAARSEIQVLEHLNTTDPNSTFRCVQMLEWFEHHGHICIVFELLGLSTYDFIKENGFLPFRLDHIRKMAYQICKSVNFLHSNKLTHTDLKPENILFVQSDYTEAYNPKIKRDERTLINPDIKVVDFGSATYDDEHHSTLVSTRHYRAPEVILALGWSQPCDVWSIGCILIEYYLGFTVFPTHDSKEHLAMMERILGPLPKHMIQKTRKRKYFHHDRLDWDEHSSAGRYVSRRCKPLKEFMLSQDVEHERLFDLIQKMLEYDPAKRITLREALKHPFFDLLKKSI

Structure (SMILES): Cc1cnc(N[C@H]2CC[C@H](N)CC2)nc1-c1cnc2ccc(-c3ccccc3)cn12 [CDDD11-8]
- remaining activity at 1 µM (ALK2/ACVR1): 121%
- remaining activity at 1 µM (ASK1/MAP3K5): 90.2%
- remaining activity at 1 µM (CDK17/cyclin Y (PCTK2)): 34.1%
- remaining activity at 1 µM (CDK3/cyclin E): 77.9%
- remaining activity at 1 µM (CK1a1L): 90%
- remaining activity at 1 µM (CLK1): 28.9%
- remaining activity at 1 µM (CLK3): 85.9%
- remaining activity at 1 µM (COT1/MAP3K8): 101%
- remaining activity at 1 µM (DMPK2): 26.3%
- remaining activity at 1 µM (EPHA1): 93.1%
- remaining activity at 1 µM (EPHA2): 86.4%
- remaining activity at 1 µM (EPHA3): 94%
- remaining activity at 1 µM (EPHA6): 88.4%
- remaining activity at 1 µM (ERK5/MAPK7): 93.3%
- remaining activity at 1 µM (GSK3a): 70.1%
- remaining activity at 1 µM (HCK): 62.7%
- remaining activity at 1 µM (MEKK2): 105%
- remaining activity at 1 µM (MRCKa/CDC42BPA): 97.7%
- remaining activity at 1 µM (MST2/STK3): 15%
- remaining activity at 1 µM (MYLK3): 99.7%
- remaining activity at 1 µM (PAK1): 106%
- remaining activity at 1 µM (PEAK1): 57.3%
- remaining activity at 1 µM (PKCiota): 88.8%
- remaining activity at 1 µM (RIPK5): 93%
- remaining activity at 1 µM (RON/MST1R): 97.9%
- remaining activity at 1 µM (STK22D/TSSK1): 93.2%
- remaining activity at 1 µM (TESK2): 100%
- remaining activity at 1 µM (TYK1/LTK): 90.8%
- remaining activity at 1 µM (ULK3): 82.8%
- remaining activity at 1 µM (WNK3): 84%
